Test results as given in patent US20260265238A1, “COMPOUNDS AND PHARMACEUTICAL COMPOSITIONS THAT DEGRADE SWI/SNF-RELATED MATRIX-ASSOCIATED ACTIN-DEPENDENT REGULATOR OF CHROMATIN SUBFAMILY A” (Plexium, Inc., priority 2023, published 2026).

Tests used:
[1] = molecular target: T1, SMARCA4-HiBiT HeLa cells (protein which is expressed from the SMARCA4 gene) (Homo sapiens, UniProt P51532); assay: SMARCA4 degradation assay (HiBiT-fusion HeLa cell line, 24 h, luminescence); format: cell-based
T1 construct: protein which is expressed from the SMARCA2 and SMARCA4 genes; host or cells: HeLa (SMARCA4-HiBiT engineered line)
Summary of the method: (§1)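 SMARCA2- or SMARCA4-HiBiT HeLa cells seeded overnight at 37° C, then given compound as a 10-point dilution (typically 10 μM to 300 pM) for 24 h at 37° C. Protein level read by HiBiT lytic detection luminescence; DC50 from dose-response curves; degradation also scored at 1 μM.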

[2] = molecular target: T2, SMARCA2-HiBiT HeLa cells (protein which is expressed from the SMARCA2 gene) (Homo sapiens, UniProt P51531); assay: SMARCA2 degradation assay (HiBiT-fusion HeLa cell line, 24 h, luminescence); format: cell-based
T2 construct: protein which is expressed from the SMARCA2 and SMARCA4 genes; host or cells: HeLa (SMARCA2-HiBiT engineered line)
Summary of the method: as §1

T2 sequence (P51531 whole entry, the tested form may be a part): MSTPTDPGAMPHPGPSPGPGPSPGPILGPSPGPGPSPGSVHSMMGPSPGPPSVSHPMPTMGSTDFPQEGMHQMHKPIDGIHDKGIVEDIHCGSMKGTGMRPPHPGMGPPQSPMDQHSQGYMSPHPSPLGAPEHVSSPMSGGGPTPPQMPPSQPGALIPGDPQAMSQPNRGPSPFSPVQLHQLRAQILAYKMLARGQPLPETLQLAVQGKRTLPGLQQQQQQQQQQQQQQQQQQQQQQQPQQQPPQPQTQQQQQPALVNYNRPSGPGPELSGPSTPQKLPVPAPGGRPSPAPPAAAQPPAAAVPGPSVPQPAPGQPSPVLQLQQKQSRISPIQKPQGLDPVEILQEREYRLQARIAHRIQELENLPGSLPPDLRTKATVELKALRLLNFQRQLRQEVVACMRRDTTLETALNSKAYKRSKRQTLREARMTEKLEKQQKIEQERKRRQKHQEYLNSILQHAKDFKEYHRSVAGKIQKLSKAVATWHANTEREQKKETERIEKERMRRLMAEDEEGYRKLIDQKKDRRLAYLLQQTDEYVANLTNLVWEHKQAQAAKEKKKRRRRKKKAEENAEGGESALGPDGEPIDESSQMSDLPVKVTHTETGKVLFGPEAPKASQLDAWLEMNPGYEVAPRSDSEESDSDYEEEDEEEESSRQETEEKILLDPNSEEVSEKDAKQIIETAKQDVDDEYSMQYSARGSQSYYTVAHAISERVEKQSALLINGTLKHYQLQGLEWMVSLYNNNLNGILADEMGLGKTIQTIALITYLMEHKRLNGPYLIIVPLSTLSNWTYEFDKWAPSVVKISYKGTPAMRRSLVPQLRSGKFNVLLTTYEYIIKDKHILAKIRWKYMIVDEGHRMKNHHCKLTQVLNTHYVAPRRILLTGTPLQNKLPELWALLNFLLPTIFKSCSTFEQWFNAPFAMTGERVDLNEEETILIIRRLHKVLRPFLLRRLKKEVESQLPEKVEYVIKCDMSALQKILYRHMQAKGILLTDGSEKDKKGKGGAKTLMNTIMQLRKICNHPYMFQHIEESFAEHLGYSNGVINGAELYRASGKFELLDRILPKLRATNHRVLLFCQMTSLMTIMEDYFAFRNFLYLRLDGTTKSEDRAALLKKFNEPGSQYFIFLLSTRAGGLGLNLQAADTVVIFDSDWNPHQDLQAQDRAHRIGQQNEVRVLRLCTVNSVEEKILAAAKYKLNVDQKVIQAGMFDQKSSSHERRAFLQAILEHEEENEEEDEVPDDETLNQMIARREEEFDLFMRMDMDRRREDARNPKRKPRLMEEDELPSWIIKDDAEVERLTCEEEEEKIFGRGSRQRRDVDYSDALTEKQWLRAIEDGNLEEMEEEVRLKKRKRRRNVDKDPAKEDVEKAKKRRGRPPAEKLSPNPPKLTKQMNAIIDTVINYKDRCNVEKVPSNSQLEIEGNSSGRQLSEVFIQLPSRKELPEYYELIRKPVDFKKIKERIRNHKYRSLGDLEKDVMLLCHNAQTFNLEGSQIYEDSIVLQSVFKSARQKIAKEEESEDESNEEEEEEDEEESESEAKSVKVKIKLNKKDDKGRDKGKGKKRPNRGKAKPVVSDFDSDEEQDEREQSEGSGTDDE
T1 sequence (P51532 whole entry, the tested form may be a part): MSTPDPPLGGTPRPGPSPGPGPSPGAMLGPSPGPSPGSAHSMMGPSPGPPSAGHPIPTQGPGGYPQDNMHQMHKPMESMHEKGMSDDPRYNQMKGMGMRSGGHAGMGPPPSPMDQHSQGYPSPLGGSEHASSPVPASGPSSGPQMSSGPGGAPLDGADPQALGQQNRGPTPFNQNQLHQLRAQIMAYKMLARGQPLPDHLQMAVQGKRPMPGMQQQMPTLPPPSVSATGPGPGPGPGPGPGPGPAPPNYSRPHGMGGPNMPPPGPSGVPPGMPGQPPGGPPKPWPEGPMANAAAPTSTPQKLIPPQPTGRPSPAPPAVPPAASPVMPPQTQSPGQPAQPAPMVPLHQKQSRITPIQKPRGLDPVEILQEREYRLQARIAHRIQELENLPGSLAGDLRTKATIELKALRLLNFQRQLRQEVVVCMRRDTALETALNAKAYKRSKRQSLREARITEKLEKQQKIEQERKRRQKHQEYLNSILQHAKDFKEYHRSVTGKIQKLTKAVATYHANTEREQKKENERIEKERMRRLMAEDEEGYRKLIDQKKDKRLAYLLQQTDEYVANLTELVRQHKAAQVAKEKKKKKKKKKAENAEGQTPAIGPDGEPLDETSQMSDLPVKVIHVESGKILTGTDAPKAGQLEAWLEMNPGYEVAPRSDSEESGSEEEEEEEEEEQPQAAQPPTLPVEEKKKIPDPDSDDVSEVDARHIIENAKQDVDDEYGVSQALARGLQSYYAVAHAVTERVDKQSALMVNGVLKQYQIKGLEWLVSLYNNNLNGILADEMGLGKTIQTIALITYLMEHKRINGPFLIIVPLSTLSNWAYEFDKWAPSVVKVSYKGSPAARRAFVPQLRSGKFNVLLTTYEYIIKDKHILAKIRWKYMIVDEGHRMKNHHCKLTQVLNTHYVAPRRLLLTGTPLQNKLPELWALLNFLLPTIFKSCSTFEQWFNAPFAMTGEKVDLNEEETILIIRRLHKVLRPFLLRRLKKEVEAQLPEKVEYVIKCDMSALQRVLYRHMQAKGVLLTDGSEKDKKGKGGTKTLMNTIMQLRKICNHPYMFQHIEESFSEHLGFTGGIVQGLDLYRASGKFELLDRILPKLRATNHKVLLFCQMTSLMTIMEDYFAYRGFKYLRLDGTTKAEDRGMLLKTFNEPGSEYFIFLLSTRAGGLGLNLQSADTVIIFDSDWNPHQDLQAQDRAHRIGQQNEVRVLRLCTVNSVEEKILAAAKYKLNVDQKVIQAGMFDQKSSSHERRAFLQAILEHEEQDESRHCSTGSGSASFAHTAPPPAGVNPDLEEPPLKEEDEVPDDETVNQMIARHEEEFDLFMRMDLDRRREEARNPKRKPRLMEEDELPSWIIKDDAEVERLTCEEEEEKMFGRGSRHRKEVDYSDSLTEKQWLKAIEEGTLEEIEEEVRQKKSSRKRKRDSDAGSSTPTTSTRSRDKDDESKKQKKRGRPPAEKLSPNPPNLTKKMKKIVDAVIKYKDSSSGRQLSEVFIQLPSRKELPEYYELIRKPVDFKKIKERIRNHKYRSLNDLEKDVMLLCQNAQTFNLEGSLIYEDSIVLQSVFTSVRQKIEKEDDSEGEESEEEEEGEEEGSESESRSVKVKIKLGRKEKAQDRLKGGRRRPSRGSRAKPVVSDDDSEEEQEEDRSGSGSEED

DC50 [1]	inhibition at 1 µM ([1]; @ 1 μM)	DC50 [2]	SMARCA2 % Degradation @ 1 μM ([2]; @ 1 μM)	inhibition at 1 µM ([1]; 1 μM)	SMARCA2 % Degradation @ 1 μM ([2]; 1 μM)	SMILES
50 to 500 nM	30 to 70%	50 to 500 nM	++ (++=30-70%)			Nc1nnc(-c2ccccc2O)cc1N1CCN(c2ccnc(C#CCNC(=O)c3cn4ccncc4n3)n2)CC1 [Compound P-60, N-(3-(4-(4-(3-amino-6-(2-hydroxyphenyl)pyridazin-4-yl)piperazin-1-yl)pyrimidin-2-yl)prop-2-yn-1-yl)imidazo[1,2-a]pyrazinc-2-carboxamidc]
< 50 nM	30 to 70%	50 to 500 nM	++ (++=30-70%)			Nc1nnc(-c2ccccc2O)cc1N1CCN(c2ccnc(C#CCNC(=O)c3cc4n(n3)CCCO4)n2)CC1 [Compound P-57, N-(3-(4-(4-(3-amino-6-(2-hydroxyphenyl)pyridazin-4-yl)piperazin-1-y1)pyrimidin-2-yl)prop-2-yn-1-yl)-6,7-dihydro-5H-pyrazolo[5,1-b][1,3]oxazine-2-carboxamide]
50 to 500 nM	30 to 70%	50 to 500 nM	+++ (+++=>70%)			C[C@@H]1CCN(c2cc(-c3ccccc3O)nnc2N)CCN1c1ccnc(C#CCNC(=O)OC(C)(C)C)n1 [Compound P-238]
< 50 nM		< 50 nM		30 to 70%	++ (++=30-70%)	C[C@@H]1CCN(c2cc(-c3ccccc3O)nnc2N)CCN1c1ccc(C#N)c(C#CCN(C)C)n1 [Compound P-423, 6-{(R)-4-[3-amino-6-(0-hydroxyphenyl)-4-pyridaziny1]-7-methyl-1,4-diazepan-1-yl}-2-[3-(dimethylamino)-1-propynyl]nicotinonitrile]
> 5000 nM		500 to 5000 nM				C[C@@H]1CCN(c2cc(-c3ccccc3O)nnc2N)CCN1c1ccnc(C#CCn2cncn2)c1C#N [Compound P-405, 4-{(R)-4-[3-amino-6-(0-hydroxyphenyl)-4-pyridaziny1]-7-methyl-1,4-diazepan-1-yl}-2-[3-(1H-1,2,4-triazol-1-yl)-1-propynyl]nicotinonitrile]
50 to 500 nM		50 to 500 nM		< 30%	+ (+=<30%)	C[C@@H]1CCN(c2cc(-c3ccccc3O)nnc2N)CCN1c1cc(C#CCN(C)C)ncc1F [Compound P-419, 0-{5-[(R)-4-{2-[3-(dimethylamino)-1-propynyl]-5-fluoro-4-pyridy1}-5-methyl-1,4-diazepan-1-yl]-6-amino-3-pyridazinyl}phenol]
50 to 500 nM	> 70%	50 to 500 nM	+++ (+++=>70%)			C[C@@H]1CCN(c2cc(-c3ccccc3O)nnc2N)CCN1c1ccnc(C#C[C@@H](O)C2CC2)n1 [Compound P-265, o-{5-[(R)-4-{2-[(S)-3-cyclopropyl-3-hydroxy-1-propynyl]-4-pyrimidinyl}-5-methyl-1,4-diazepan-1-yl]-6-amino-3-pyridaziny1} phenol]
50 to 500 nM	30 to 70%	50 to 500 nM	++ (++=30-70%)			COCC1CN(CC#Cc2nccc(N3CCN(c4cc(-c5ccccc5O)nnc4N)CC[C@H]3C)n2)CCO1 (stereo partly drawn) [Compound P-161, o-{5-[(R)-4-(2-{3-[2-(methoxymethyl)-4-morpholinyl]-1-propynyl}-4-pyrimidinyl)-5-methyl-1,4-diazepan-1-yl]-6-amino-3-pyridazinyl}phenol]
500 to 5000 nM		50 to 500 nM		30 to 70%	++ (++=30-70%)	COCC#Cc1cc(N2CCN(c3cc(-c4ccccc4O)nnc3N)CC[C@H]2C)ccn1 [Compound P-398, 0-(5-{(R)-4-[2-(3-methoxy-1-propynyl)-4-pyridyl]-5-methyl-1,4-diazepan-1-yl}-6-amino-3-pyridazinyl)phenol]
> 5000 nM		500 to 5000 nM	+ (+=<30%)			C[C@H]1CN(c2ccnc(C#CCN)n2)CCN1c1cc(-c2ccccc2O)nnc1N [Compound P-86, (S)-2-(6-amino-5-(4-(2-(3-aminoprop-1-yn-1-yl)pyrimidin-4-yl)-2-methylpiperazin-1-yl)pyridazin-3-yl)phenol]
< 50 nM	30 to 70%	< 50 nM	+++ (+++=>70%)			C[C@@H]1CCN(c2cc(-c3ccccc3O)nnc2N)CCN1c1ccnc(C#CCN2CCC3(CCC3)C2)n1 [Compound P-237, o-{5-[(R)-4-(2-{3-(6-aza-6-spiro| 3.4 | octyl)-1-propynyl}-4-pyrimidinyl)-5-methyl-1,4-diazepan-1-yl]-6-amino-3-pyridazinyl} phenol]
50 to 500 nM	30 to 70%	50 to 500 nM	+++ (+++=>70%)			Nc1nnc(-c2ccccc2O)cc1N1CCCN(c2ccnc(C#CCN3CC(F)(F)C3)n2)CC1 [Compound P-312, 0-[6-amino-5-(4-{2-[3-(3,3-difluoro-1-azetidinyl)-1-propynyl]-4-pyrimidinyl}-1,4-diazepan-1-yl)-3-pyridazinyl]phenol]
50 to 500 nM	30 to 70%	50 to 500 nM	++ (++=30-70%)			Nc1nnc(-c2ccccc2O)cc1N1CCN(c2ccnc(C#CCNC(=O)c3cc4n(n3)CCOC4)n2)CC1 [Compound P-58, N-(3-(4-(4-(3-amino-6-(2-hydroxyphenyl)pyridazin-4-yl)piperazin-1-yl)pyrimidin-2-yl)prop-2-yn-1-yl)-6,7-dihydro-4H-pyrazolo[5,1-c][1,4]oxazine-2-carboxamide]
50 to 500 nM	> 70%	50 to 500 nM	+++ (+++=>70%)			COC(=O)NCC#Cc1nccc(N2CCCN(c3cc(-c4ccccc4O)nnc3N)CC2)n1 [Compound P-353, 3-(4-{4-[3-amino-6-(o-hydroxyphenyl)-4-pyridaziny1]-1,4-diazepan-1-y1}-2-pyrimidinyl)-2-propynylaminomethylformylate]
50 to 500 nM	30 to 70%	50 to 500 nM	++ (++=30-70%)			Cc1cc(C(=O)NCC#Cc2nccc(N3CCN(c4cc(-c5ccccc5O)nnc4N)CC3)n2)no1 [Compound P-1, N-[3-(4-{4-[3-amino-6-(2-hydroxyphenyl)pyridazin-4-yl]piperazin-1-yl}pyrimidin-2-yl)prop-2-yn-1-yl]-5-methyl-1,2-oxazole-3-carboxamide]
50 to 500 nM	30 to 70%	50 to 500 nM	+++ (+++=>70%)			COC1CCN(CC#Cc2nccc(N3CCCN(c4cc(-c5ccccc5O)nnc4N)CC3)n2)CC1 [Compound P-378, 0-[6-amino-5-(4-{2-[3-(4-methoxy-1-piperidyl)-1-propynyl]-4-pyrimidinyl}-1,4-diazepan-1-yl)-3-pyridazinyl]phenol]
500 to 5000 nM	< 30%	50 to 500 nM	++ (++=30-70%)			C[C@@H]1CCN(c2cc(-c3ccccc3O)nnc2N)CCN1c1ccnc(C#CC2CCCO2)n1 (stereo partly drawn) [Compound P-211, o-{5-[(R)-5-methyl-4-{2-[2-(tetrahydro-2-furyl)ethynyl]-4-pyrimidinyl}-1,4-diazepan-1-yl]-6-amino-3-pyridaziny1} phenol]
< 50 nM	30 to 70%	< 50 nM	+++ (+++=>70%)			C[C@@H]1CCCN1CC#Cc1nccc(N2CCN(c3cc(-c4ccccc4O)nnc3N)CC[C@H]2C)n1 [Compound P-232, o-{5-[(R)-4-(2-{3-[(R)-2-methyl-1-pyrrolidinyl]-1-propynyl}-4-pyrimidinyl)-5-methyl-1,4-diazepan-1-yl]-6-amino-3-pyridazinyl}phenol]
< 50 nM	> 70%	< 50 nM	+++ (+++=>70%)			C[C@H]1CCN(c2cc(-c3ccccc3O)nnc2N)CCN1c1ccnc(C#CCNC(=O)c2cnc3ccccc3n2)n1 [Compound P-101, (S)-N-(3-(4-(4-(3-amino-6-(2-hydroxyphenyl)pyridazin-4-yl)-7-methyl-1,4-diazepan-1-yl)pyrimidin-2-y1)prop-2-yn-1-yl)quinoxaline-2-carboxamide]

SMILES	DC50 [1]	inhibition at 1 µM ([1]; @ 1 μM)	DC50 [2]	SMARCA2 % Degradation @ 1 μM ([2]; @ 1 μM)	inhibition at 1 µM ([1]; 1 μM)	SMARCA2 % Degradation @ 1 μM ([2]; 1 μM)
Nc1nnc(-c2ccccc2O)cc1N1CC2CCC(C1)N2c1ccnc(C#CCNc2nc3ccccc3o2)n1 [Compound P-100, 2-(6-amino-5-(8-(2-(3-(benzo[d]doxazol-2-ylamino)prop-1-yn-1-yl)pyrimidin-4-yl)-3,8-diazabicyclo[3.2.1]octan-3-yl)pyridazin-3-yl)phenol]	50 to 500 nM	30 to 70%	50 to 500 nM	+++ (+++=>70%)		
Nc1nnc(-c2ccccc2O)cc1N1CC2CCC(C1)N2c1ccnc(C#CCNc2ncco2)n1 [Compound P-106, 2-(6-amino-5-(8-(2-(3-(oxazol-2-ylamino)prop-1-yn-1-yl)pyrimidin-4-yl)-3,8-diazabicyclo[3.2.1]octan-3-yl)pyridazin-3-yl)phenol]	500 to 5000 nM	30 to 70%	500 to 5000 nM	++ (++=30-70%)		
Cc1nn2ccn(CC#Cc3nccc(N4C5CCC4CN(c4cc(-c6ccccc6O)nnc4N)C5)n3)c(=O)c2c1C [Compound P-103, 5-(3-(4-(3-(3-amino-6-(2-hydroxyphenyl)pyridazin-4-yl)-3,8-diazabicyclo[3.2.1]octan-8-yl)pyrimidin-2-yl)prop-2-yn-1-yl)-2,3-dimethylpyrazolo[1,5-a]pyrazin-4(5H)-one]	50 to 500 nM	30 to 70%	50 to 500 nM	+++ (+++=>70%)		
